Active and inactive are the calls of the source. The rule behind the calls is not given here.
Legend:
Rattus norvegicus [1] = experiment: Antioxidant activity in scopolamine-induced Wistar rat model of amnesia assessed as increase in SOD level at 2.5 to 10 mg/kg, po pretreated for 7 days followed by scopolamine challenge and measured after 30 mins […]; assay type: functional, organism-based; settings: dose mg/kg 2.5-10, time 7.0 day
[2] = Half life in Wistar rat at 10 mg/kg, po measured up to 72 hrs by HPLC analysis; assay type: ADME, organism-based; settings: in vivo
[3] = molecular target: Amyloid-beta precursor protein (Homo sapiens) (UniProt P05067); settings: dose microM 5-20, time 48.0 hrs
Rattus norvegicus [4] = experiment: Ex vivo inhibition of AChE in brain of scopolamine-induced Wistar rat model of amnesia at 5 to 10 mg/kg, po pretreated for 7 days followed by scopolamine challenge and measured after 30 mins using acetylthiocholine iodide as substrate by Ellman's method; assay type: functional, organism-based; settings: dose mg/kg 5-10, time 7.0 day
[5] = molecular target: Amyloid-beta precursor protein (Homo sapiens) (UniProt P05067); experiment: Inhibition of amyloid beta (unknown origin) self aggregation assessed as roughness index at 10 uM after 10 days by atomic force microscopy; settings: time 10.0 day
Rattus norvegicus [6] = experiment: Antioxidant activity in scopolamine-induced Wistar rat model of amnesia assessed as decrease in MDA level at 2.5 to 10 mg/kg, po pretreated for 7 days followed by scopolamine challenge and measured after 30 mins […]; assay type: functional, organism-based; settings: dose mg/kg 2.5-10, time 7.0 day
Acetylcholinesterase [7] = molecular target: T1, Acetylcholinesterase (Homo sapiens, UniProt P22303); experiment: Mixed type inhibition of human erythrocytes AChE assessed as decrease in Vmax using varying levels of acetylthiocholine iodide substrate by Lineweaver-Burk plot analysis; settings: Erythrocyte
[8] = Acute toxicity in po dosed Wistar rat assessed as maximum tolerated dose by OCED guideline method; assay type: organism-based; settings: in vivo
[9] = molecular target: Amyloid-beta precursor protein (Homo sapiens) (UniProt P05067); experiment: Inhibition of amyloid beta (1 to […]) (unknown origin) self-induced aggregation after 48 hrs by Thioflavin T based fluorometric assay; settings: dose microM 5-20, time 48.0 hrs
Rattus norvegicus [10] = experiment: Cognitive enhancing effect in po dosed scopolamine-induced Wistar rat model of amnesia assessed as increase in spontaneous alteration pretreated for 7 days followed by scopolamine challenge and measured after 30 mins by Y-maze test; assay type: functional, organism-based; settings: dose mg/kg 2.5-10, time 7.0 day
Acetylcholinesterase [11] = molecular target: T1, Acetylcholinesterase; experiment: Mixed type inhibition of human erythrocytes AChE using varying levels of acetylthiocholine iodide substrate by Dixon plot analysis; assay type: tissue-based, Erythrocyte
[12] = molecular target: Amyloid-beta precursor protein (Homo sapiens) (UniProt P05067); experiment: Inhibition of amyloid beta (unknown origin) self aggregation assessed as maximum peak height at 10 uM after 10 days by atomic force microscopy; settings: time 10.0 day
[13] = AUC (0 to 24 hrs) in Wistar rat at 10 mg/kg, po measured up to 72 hrs by HPLC analysis; assay type: ADME, organism-based; set-up: route oral, dose 10 mg/kg, time 72 hrs; settings: in vivo
[14] = Cmax in Wistar rat at 10 mg/kg, po measured up to 72 hrs by HPLC analysis; assay type: ADME, organism-based; set-up: route oral, time 72 hrs, dose 10 mg/kg; settings: in vivo
Cholinesterase = Cholinesterase (Homo sapiens, UniProt P06276); experiment: Inhibition of human serum BChE using butyrylthiocholine iodide as substrate preincubated for 10 mins followed by substrate addition by Ellman's method; assay type: cell-free
Acetylcholinesterase [15] = molecular target: T1, Acetylcholinesterase; experiment: Mixed type inhibition of human erythrocytes AChE assessed as increase in Km using varying levels of acetylthiocholine iodide substrate by Lineweaver-Burk plot analysis; assay type: tissue-based; settings: Erythrocyte
[16] = Tmax in Wistar rat at 10 mg/kg, po measured up to 72 hrs by HPLC analysis; assay type: ADME, organism-based; settings: in vivo
Rattus norvegicus [17] = experiment: Cognitive enhancing effect in scopolamine-induced Wistar rat model of amnesia assessed as increase in spontaneous alteration at 5 to 10 mg/kg, po pretreated for 7 days followed by scopolamine challenge and measured after 30 mins by Y-maze test; assay type: functional, organism-based; settings: dose mg/kg 5-10, time 7.0 day
[18] = MRT in Wistar rat at 10 mg/kg, po measured up to 72 hrs by HPLC analysis; assay type: ADME, organism-based; settings: in vivo
Acetylcholinesterase [19] = molecular target: T1, Acetylcholinesterase; settings: dose microM 5-20, time 48.0 hrs
[20] = Acute toxicity in Wistar rat assessed as abnormal signs at 100 to 500 mg/kg, po measured up to 14 days by OCED guideline method; assay type: organism-based; settings: in vivo, 336 h, dose 100-500 mg/kg, time 14 day
Rattus norvegicus [21] = experiment: Improvement in learning and spatial memory in icv infused amyloid beta (1 to 42)-induced rat model of Alzheimer's disease assessed as increase in number of platform crossing at 10 mg/kg, po administered daily for 7 days starting from 7 days post surgery and measured after 6 days by Morris water maze test; assay type: functional, organism-based; settings: time 13.0 day
SH-SY5Y = experiment: Neuroprotective activity against amyloid beta (1 to 42)-induced oxidative stress in human SH-SY5Y cells assessed as effect on cell viability at 10 to 80 uM measured after 24 hrs by MTT assay (reference value: 61 %); assay type: functional; settings: dose microM 10-80
Rattus norvegicus [22] = experiment: Improvement in learning and spatial memory in icv infused amyloid beta (1 to 42)-induced rat model of Alzheimer's disease assessed as reduction in escape latency at 10 mg/kg, po administered daily for 7 days starting from 7 days post surgery and measured daily for 5 days by Morris water maze test; assay type: functional, organism-based; settings: time 12.0 day
[23] = Permeability of the compound in PBS/EtOH buffer (7:3) at 25 ug/ml after 18 hrs by PAMPA-BBB assay

Amyloid-beta precursor protein (Homo sapiens), sequence (P05067 whole entry): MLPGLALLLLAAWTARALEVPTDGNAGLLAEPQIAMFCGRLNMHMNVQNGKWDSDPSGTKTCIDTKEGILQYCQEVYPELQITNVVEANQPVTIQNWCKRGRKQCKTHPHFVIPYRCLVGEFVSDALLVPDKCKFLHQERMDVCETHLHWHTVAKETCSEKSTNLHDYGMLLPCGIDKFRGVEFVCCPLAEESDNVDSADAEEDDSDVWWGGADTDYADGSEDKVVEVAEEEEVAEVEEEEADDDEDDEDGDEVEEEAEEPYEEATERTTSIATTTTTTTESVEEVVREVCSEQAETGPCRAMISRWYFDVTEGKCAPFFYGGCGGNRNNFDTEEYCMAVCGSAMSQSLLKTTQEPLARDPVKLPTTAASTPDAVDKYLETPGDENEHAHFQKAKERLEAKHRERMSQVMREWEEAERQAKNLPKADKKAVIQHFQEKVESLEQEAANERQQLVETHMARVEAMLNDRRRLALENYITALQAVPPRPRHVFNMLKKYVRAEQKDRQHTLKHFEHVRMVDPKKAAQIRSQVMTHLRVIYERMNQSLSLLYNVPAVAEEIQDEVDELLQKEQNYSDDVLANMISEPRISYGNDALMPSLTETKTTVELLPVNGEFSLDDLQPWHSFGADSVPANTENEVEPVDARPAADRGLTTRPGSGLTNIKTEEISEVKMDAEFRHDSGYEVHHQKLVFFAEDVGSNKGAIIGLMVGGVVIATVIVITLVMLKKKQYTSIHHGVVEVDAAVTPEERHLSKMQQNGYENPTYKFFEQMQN
T1 sequence (P22303 whole entry): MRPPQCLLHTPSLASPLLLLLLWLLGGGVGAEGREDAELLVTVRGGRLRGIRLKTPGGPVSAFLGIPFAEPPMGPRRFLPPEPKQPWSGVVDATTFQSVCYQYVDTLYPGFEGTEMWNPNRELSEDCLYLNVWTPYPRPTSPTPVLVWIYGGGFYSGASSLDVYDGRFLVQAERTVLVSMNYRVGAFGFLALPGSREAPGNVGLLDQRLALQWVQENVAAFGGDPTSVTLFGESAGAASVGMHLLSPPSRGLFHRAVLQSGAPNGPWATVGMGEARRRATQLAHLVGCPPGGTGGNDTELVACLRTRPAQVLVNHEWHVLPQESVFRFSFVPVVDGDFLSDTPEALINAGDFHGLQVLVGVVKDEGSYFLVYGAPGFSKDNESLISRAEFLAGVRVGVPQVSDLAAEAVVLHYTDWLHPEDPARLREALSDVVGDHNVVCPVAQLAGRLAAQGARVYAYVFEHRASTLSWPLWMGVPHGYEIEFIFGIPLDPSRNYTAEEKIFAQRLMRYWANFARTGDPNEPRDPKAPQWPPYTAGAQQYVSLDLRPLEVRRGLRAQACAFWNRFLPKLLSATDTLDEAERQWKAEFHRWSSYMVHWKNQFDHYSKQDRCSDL
Cholinesterase, sequence (P06276 whole entry): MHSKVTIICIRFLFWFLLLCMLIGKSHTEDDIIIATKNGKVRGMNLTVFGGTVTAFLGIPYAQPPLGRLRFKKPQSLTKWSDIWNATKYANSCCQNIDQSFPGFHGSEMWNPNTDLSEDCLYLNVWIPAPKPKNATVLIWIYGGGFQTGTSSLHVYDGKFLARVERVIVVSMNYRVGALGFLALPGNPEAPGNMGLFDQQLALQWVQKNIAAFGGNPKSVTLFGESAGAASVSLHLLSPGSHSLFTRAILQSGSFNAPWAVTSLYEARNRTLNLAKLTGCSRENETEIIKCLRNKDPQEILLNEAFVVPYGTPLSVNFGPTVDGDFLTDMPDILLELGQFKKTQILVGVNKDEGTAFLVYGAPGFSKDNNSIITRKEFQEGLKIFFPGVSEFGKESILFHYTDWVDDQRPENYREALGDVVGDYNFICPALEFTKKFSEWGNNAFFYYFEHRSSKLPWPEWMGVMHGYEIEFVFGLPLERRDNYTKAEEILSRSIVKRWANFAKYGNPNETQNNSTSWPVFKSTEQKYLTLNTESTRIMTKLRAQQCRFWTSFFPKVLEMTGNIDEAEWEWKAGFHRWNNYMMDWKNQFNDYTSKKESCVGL

For `Fc1ccc(-c2nnc(N3CCN(c4ccccn4)CC3)o2)c(F)c1`, the Activity (Rattus norvegicus [1]) was “Active”, the half-life [2] was 12.3 h and the Flu intensity [3] was 0.3. For the same molecule, the inhibition (Rattus norvegicus [4]) was “Active”, the Activity [5] was 1.84 nm and the Activity (Rattus norvegicus [6]) was “Active”. The inhibition (Acetylcholinesterase [7]) was “Active”, the MTD [8] was 100 mg/kg and the inhibition [9] was “Active”. For the same molecule, the Activity (Rattus norvegicus [10]) was “Dose-dependent effect”, the Ki (Acetylcholinesterase [11]) was 0.03 µM and the Activity [12] was 44.2 nm. For the same molecule, the AUC(0-t) at 72 h [13] was 0.721 µg·h/mL, the Cmax [14] was 0.0498 µg/mL and the IC50 (Cholinesterase) was 0.787 µM. For the same molecule, the inhibition (Acetylcholinesterase [15]) was “Active”, the Tmax [16] was 5.33 h and the Activity (Rattus norvegicus [17]) was “Active”. For the same molecule, the MRT [18] was 18.4 h, the Flu intensity (Acetylcholinesterase [19]) was 0.33 and the Activity [20] was “Non-Toxic”. The Activity (Rattus norvegicus [21]) was “Active”, the Activity (SH-SY5Y) was 69% and the Activity (Rattus norvegicus [22]) was “Active”. The Papp at 18 h, 25 ug/ml [23] was 61 nm/s.

From ChEMBL document CHEMBL4665668, “Design and development of molecular hybrids of 2-pyridylpiperazine and 5-phenyl-1,3,4-oxadiazoles as potential multifunctional agents to treat Alzheimer's disease” (Eur J Med Chem, 2019)
